Assay results as given in patent US20200000976A1, “A MEDICAL IMPLANT AND A METHOD OF COATING A MEDICAL IMPLANT” (priority 2016, published 2020).

Tests used:
[1] = Palacos cement; cited from earlier work
[2] = Palacos cement; cited from earlier work; remark: listed apart in the source
[3] = tested on: osteoblasts derived from trabecular bone; details: cited from earlier work
[4] = binding and release of antimicrobial silver on Ti, PCL and PEEK (previous in house work); type: physicochemical

Molecule | elution from cement at low doses [1] | effects at high concentrations [2] | low levels with no or little effect on the replication of osteoblasts [3] [µg/mL] | also measured
teicoplanin | very little elution occurs | local cytotoxic effects |  | 
gentamicin | very little elution occurs | local cytotoxic effects |  | levels impeding 3H-thymidine levels [3]: > 100 mL⁻¹
CN[C@H](CC(C)C)C(=O)N[C@H]1C(=O)N[C@@H](CC(N)=O)C(=O)N[C@H]2C(=O)N[C@H]3C(=O)N[C@H](C(=O)N[C@H](C(=O)O)c4cc(O)cc(O)c4-c4cc3ccc4O)[C@H](O)c3ccc(c(Cl)c3)Oc3cc2cc(c3O[C@@H]2O[C@H](CO)[C@@H](O)[C@H](O)[C@H]2O[C@H]2C[C@](C)(N)[C@H](O)[C@H](C)O2)Oc2ccc(cc2Cl)[C@H]1O [vancomycin] |  |  | < 1 | high concentrations at which cell death of osteoblasts occurs [3]: 10,000 /mL
NC[C@H]1O[C@H](O[C@H]2[C@H](O)[C@@H](O[C@H]3O[C@H](CO)[C@@H](O)[C@H](N)[C@H]3O)[C@H](N)C[C@@H]2N)[C@H](N)C[C@@H]1O [Tobramycin, tobramycin] |  |  | < 200 | higher concentrations at which replication decreases and eventually cell death occurs [3]: > 400 µg/mL
[Ag] [antimicrobial silver, silver] |  |  |  | time of release above MIC [4]: 40 days; released level (above MIC) ([4]; for 40 days): above 1 ug/mL
